Data: PubChem BioAssay (NCI)
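Test compounds were applied to cells in 96-well plates for 48 hours at 5 doses. TGI: total growth inhibition.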

Key:
Test in all cases: NCI-60 cell line screen, 48 h
[1] = test system: U251 CNS
[2] = test system: HCT-116 colon
[3] = test system: COLO 205 colon
[4] = test system: HOP-18 NSCLC
[5] = test system: HT29 colon
[6] = test system: SK-MEL-5 melanoma
[7] = test system: A498 renal
[8] = test system: RXF 393 renal
[9] = test system: SF-268 CNS
[10] = test system: TK-10 renal
[11] = test system: OVCAR-3 ovarian
[12] = test system: HOP-92 NSCLC
[13] = test system: IGROV1 ovarian
[14] = test system: MOLT-4 leukemia
[15] = test system: SF-539 CNS
[16] = test system: NCI-H226 lung
[17] = test system: OVCAR-5 ovarian
[18] = test system: T-47D breast
[19] = test system: MDA-MB-231 breast
[20] = test system: SR leukemia

SMILES | TGI [1] [µM] | TGI [2] [µM] | TGI [3] [µM] | TGI [4] [µM] | TGI [5] [µM] | TGI [6] [µM] | TGI [7] [µM] | TGI [8] [µM] | TGI [9] [µM] | TGI [10] [µM] | TGI [11] [µM] | TGI [12] [µM] | TGI [13] [µM] | TGI [14] [µM] | TGI [15] [µM] | TGI [16] [µM] | TGI [17] [µM] | TGI [18] [µM] | TGI [19] [µM] | TGI [20] [µM]
CCOC(=O)C1(Br)C(c2ccccc2)NC(=O)N(C2OC(COC(=O)c3ccccc3)C(OC(=O)c3ccccc3)C2OC(=O)c2ccccc2)C1(C)Br (configuration not stated) | > 100 | 52.2 | > 65.7 | > 100 | > 100 | 31.3 | > 100 | 31 | > 100 | > 100 | > 89.6 | 69.9 | > 100 | 59 | > 100 | – | – | – | – | –
CN(C)/N=C1\C=C2CC[C@H](O[Si](C)(C)C(C)(C)C)[C@@]2(C)CC1 | 29.7 | – | 32.1 | – | 34.9 | 24.9 | 38.7 | 28 | 39.6 | 34.6 | 27.9 | 28.5 | 41 | 32.4 | 42.4 | 35 | 32.5 | 29.6 | 30.3 | 40.9
CCN(CC)CCOc1ccc(N2Cc3ccccc3C2=O)cc1 | > 10 | > 10 | > 10 | – | > 10 | > 10 | > 10 | > 10 | > 10 | > 10 | > 10 | > 10 | > 10 | > 10 | > 10 | > 10 | > 10 | > 10 | > 10 | > 10
Fc1ccc2c(c1)SC1Oc3ccccc3-c3c1c-2nn3-c1ccccc1 (configuration not stated) | > 100 | > 100 | > 100 | > 100 | > 100 | – | > 100 | > 100 | > 100 | > 100 | > 100 | > 100 | > 100 | > 100 | > 100 | – | > 100 | – | – | –
N#Cc1c(N)c2c(c(-c3ccccc3)c1-c1ccccc1)C(=O)N(Nc1ccccc1)C2=O | > 100 | 43.7 | 56.7 | – | – | 78.5 | > 100 | 65.2 | > 100 | > 100 | 78.1 | > 100 | > 100 | > 100 | > 100 | > 100 | > 100 | 71 | > 100 | > 100
CCCCC1C(=O)N(c2ccc(S(=O)(=O)Nc3ccccn3)cc2)N(c2ccc(O)c(C(=O)O)c2)C1=O (configuration not stated) | > 100 | > 100 | > 100 | – | > 100 | > 100 | > 100 | > 100 | > 100 | – | > 100 | > 100 | > 100 | > 100 | > 100 | > 100 | > 100 | > 100 | > 100 | > 100
O=C1N[C@H]2C(=O)c3c(Cl)sc(Cl)c3[C@H]2O1 | 11.6 | 8.73 | 21.3 | – | 6.23 | 35 | 60.5 | 9.31 | 22.4 | 70.8 | 3.54 | 26.4 | 10.6 | 8.22 | 20.6 | > 100 | 37.7 | 29.2 | 32 | 6.71
c1ccc(CN2CCCN3CCN(CCCN(Cc4ccccc4)CC3)CC2)cc1 | > 100 | > 100 | 57.8 | – | > 100 | 36.1 | > 100 | > 100 | > 100 | > 100 | > 100 | > 100 | > 100 | > 100 | > 100 | > 100 | > 100 | > 100 | > 100 | > 100
COc1ccc(C2C3=C(COC3=O)OC(C)(C)Oc3cc4c(cc32)OCO4)cc1 (configuration not stated) | > 100 | > 85.4 | 48.5 | – | > 100 | 99.8 | 85.2 | 79 | > 100 | 97 | > 100 | > 65.8 | > 100 | > 83.8 | > 72.7 | 99.2 | > 100 | > 87.4 | 97.9 | > 100
CCCCNC(=O)OCC(COc1ccccc1OC)OC(=O)NCCCC (configuration not stated) | > 100 | > 100 | > 100 | > 100 | > 100 | > 100 | > 100 | > 100 | > 100 | > 100 | > 100 | – | > 100 | > 100 | > 100 | > 100 | – | – | – | –
N#Cc1nc(Sc2cnsn2)c(Sc2cnsn2)nc1C#N | > 90.1 | 17.1 | 19 | – | 47.6 | 29.4 | 43.8 | 12.3 | 40.6 | 12.1 | 22.1 | > 70.5 | 37.3 | > 30.1 | 41.4 | 43.7 | 38.8 | > 27.6 | 48.7 | > 100
O=c1oc2ccccc2cc1-c1csc(Nc2cc(Cl)cc(Cl)c2)n1 | 11.7 | > 38.3 | > 100 | – | 14.2 | > 100 | 65.6 | 14.6 | > 100 | 85.2 | 35.2 | > 58.3 | 36 | > 100 | 5.16 | > 56.1 | > 100 | > 100 | 63.8 | > 100
Cc1nc2c(=O)n(C)c(=O)nc-2n(CCO)c1C | > 100 | > 100 | > 100 | – | > 100 | > 100 | > 100 | > 100 | > 100 | > 100 | > 100 | > 100 | > 100 | > 100 | > 100 | > 100 | > 100 | > 100 | > 100 | > 100
